Our source for the IC50 values is patent US7342030B2, “Indole derivatives” (Hoffmann-La Roche Inc., priority 2004, dated 2008).

The experiment has as its system HEK293 cells. Put plainly: Viability Assay of HEK293 Cells (CellTiter-Glo Luminescent Cell Viability Assay). It counts as cell-based. To be noted: Homo sapiens, 7 days (168 h) incubation, compounds 3 μM to 0.00015 μM, ATP luminescence. As to the method: Viability Assay of HEK293 Cells
A viability assay was performed using the CellTiter-Glo® Luminescent Cell Viability Assay (see Promega Corporation's Technical Bulletin No. 288, pp. 1-11 [revised 2/04] which is hereby incorporated by reference in its entirety). This assay is a homogeneous method of determining the number of viable cells in culture based on quantitation of the ATP present, an indicator of metabolically active cells. The assay is designed for use with multiwell formats, making it ideal for automated high-throughput screening (HTS), cell proliferation and cytotoxicity assays. The homogeneous assay procedure involves adding a single reagent (containing luciferase, luciferan substrate, and buffer) directly to cells cultured in serum-supplemented medium. Cell washing, removal of medium and multiple pipetting steps are not required. The system detects as few as 15 cells/well in a 384-well format in 10 minutes after adding reagent and mixing.
The homogeneous “add-mix-measure” format results in cell lysis and generation of a luminescent signal proportional to the amount of ATP present. The amount of ATP is directly proportional to the number of cells present in culture. The above-referenced assay generates a “glow-type” luminescent signal, produced by the luciferase reaction, which has a half-life generally greater than five hours, depending on cell type and medium used. The extended half-life eliminates the need to use reagent injectors and provides flexibility for continuous or batch mode processing of multiple plates. The unique homogeneous format avoids errors that may be introduced by other ATP measurement methods that require multiple steps.
HEK293 cells (human embryonic kidney cell line transformed by Adenovirus 5 fragments, ATCC-No. CRL 1573) were cultivated in Dulbecco's Modified Eagle Medium (D-MEM) (1×) liquid (high glucose) (which includes L-Alanyl-L-Glutamine [a stabilized a form of L-Glutamine], 4500 mg/L glucose, and 110 mg/L sodium pyruvate) from Invitrogen Coropration (Invitrogen Catalog Number 31966-021 [now 10569-010] which is hereby incorporated by reference), 5% Fetal Calf Serum (FCS, Sigma Cat-No. F4135 (FBS)), 100 Units/ml penicillin/100 μg/ml streptomycin (=Pen/Strep from Invitrogen Cat. No. 15140). For the assay the cells were seeded in 384 well plates, 5000 cells per well, in the same medium. The next day the test compounds were added in various concentrations ranging from 3 μM to 0.00015 μM (10 concentrations, 1:3 diluted).
After 7 days the above viability assay was performed in accordance with the following steps: • Step 1: The cell-plate was equilibrated to room temperature for approximately 30 minutes and than the assay reagent was added. • Step 2: The contents were carefully mixed for 15 minutes to induce cell lysis. • Step 3: After 45 minutes the luminescent signal was measured in Victor 2, (a scanning multiwell spectrophotometer, Wallac). Details:
Medium: Dulbecco's Modified Eagle Medium (D-MEM) (1×) liquid (high glucose) (which includes L-Alanyl-L-Glutamine [a stabilized a form/source of L-Glutamine], 4500 mg/L glucose, and 110 mg/L sodium pyruvate) from Invitrogen Coropration (Invitrogen Catalog Number 31966-021 [now 10569-010] which is hereby incorporated by reference in its entirety), 5% Fetal Calf Serum (FCS, Sigma Cat-No. F4135 [FBS] which is hereby incorporated by reference in its entirety), Pen/Strep contaning 100 Units/ml penicillin/100 μg/ml streptomycin (Invitrogen Catalog Number 15140, which is hereby incorporated by reference in its entirety). —HEK293 (ATCC-No. CRL 1573): 5000 cells in 60 μl per well of 384 well plate (Greiner 781098, white plates) • Incubate 24 h at 37° C., 5% CO2
2. Day: Induction (Substance Testing): […]
(In general: In ATP-based viability assays light output follows the ATP content of the culture.)

Turning to `FC(F)(F)Oc1ccc2[nH]c(-c3nc(COc4ccc(CCCCn5ccnn5)cc4)co3)cc2c1` [Example 1, 2-{4-[4-(4-[1,2,3]Triazol-1-yl-butyl)-phenoxymethyl]-oxazol-2-yl}-5-trifluoromethoxy-1H-indole], the IC50 (commonly the point on the concentration scale where inhibition reaches its midpoint) fell in the range of 0.1 to 50 nM.

`Clc1ccc2[nH]c(-c3nc(COc4ccc(CCCCn5ccnn5)cc4)co3)cc2c1` [Example 2, 5-Chloro-2-{4-[4-(4-[1,2,3]triazol-1-yl-butyl)-phenoxymethyl]-oxazol-2-yl}-1H-indole] came in with an IC50 of 0.1 to 50 nM.

In turn, `Fc1ccc2[nH]c(-c3nc(COc4ccc(CCCCn5ccnn5)cc4)co3)cc2c1` [Example 3, 5-Fluoro-2-{4-[4-(4-[1,2,3]triazol-1-yl-butyl)-phenoxymethyl]-oxazol-2-yl}-1H-indole] registered an IC50 of 6.6 nM.

In the case of `Fc1ccc2cc(-c3nc(COc4ccc(CCCCn5ccnn5)cc4)co3)[nH]c2c1` [Example 4, 6-Fluoro-2-{4-[4-(4-[1,2,3]triazol-1-yl-butyl)-phenoxymethyl]-oxazol-2-yl}-1H-indole], the IC50 lay within 0.1 to 50 nM.

The compound `Cc1cc(OCc2coc(-c3cc4cc(F)ccc4[nH]3)n2)ccc1CCCCn1ccnn1` [Example 7, 5-Fluoro-2-{4-[3-methyl-4-(4-[1,2,3]triazol-1-yl-butyl)-phenoxymethyl]-oxazol-2-yl}-1H-indole] showed an IC50 of 0.1 to 50 nM.

In the case of `Cc1cc(OCc2coc(-c3cc4ccc(F)cc4[nH]3)n2)ccc1CCCCn1ccnn1` [Example 8, 6-Fluoro-2-{4-[3-methyl-4-(4-[1,2,3]triazol-1-yl-butyl)-phenoxymethyl]-oxazol-2-yl}-1H-indole], the IC50 lay within 0.1 to 50 nM.

In turn, `Clc1ccc2[nH]c(-c3nc(COc4ccc(COCCn5ccnn5)cc4)co3)cc2c1` [Example 10, 5-Chloro-2-{4-[4-(2-[1,2,3]triazol-1-yl-ethoxymethyl)-phenoxymethyl]-oxazol-2-yl}-1H-indole] gave an IC50 of 0.1 to 50 nM.

In turn, `Fc1ccc2[nH]c(-c3nc(COc4ccc(COCCn5ccnn5)cc4)co3)cc2c1` [Example 11, 5-Fluoro-2-{4-[4-(2-[1,2,3]triazol-1-yl-ethoxymethyl)-phenoxymethyl]-oxazol-2-yl}-1H-indole] showed an IC50 of 0.1 to 50 nM.

As for `[O-][S+](CCn1ccnn1)Cc1ccc(OCc2coc(-c3cc4cc(Cl)ccc4[nH]3)n2)cc1` (stereo not drawn) [Example 12, 5-Chloro-2-{4-[4-(2-[1,2,3]triazol-1-yl-ethanesulfinylmethyl)-phenoxymethyl]-oxazol-2-yl}-1H-indole], the IC50 lay in the range of 500 to 1000 nM.

`[O-][S+](CCn1ccnn1)Cc1ccc(OCc2coc(-c3cc4cc(F)ccc4[nH]3)n2)cc1` (stereo not drawn) [Example 13, 5-Fluoro-2-{4-[4-(2-[1,2,3]triazol-1-yl-ethanesulfinylmethyl)-phenoxymethyl]-oxazol-2-yl}-1H-indole] displayed an IC50 of 50 to 500 nM.

Turning to `FC(F)(F)Oc1ccc2[nH]c(-c3nc(COc4cccc(CCCn5ccnn5)c4)co3)cc2c1` [Example 14, 2-{4-[3-(3-[1,2,3]Triazol-1-yl-propyl)-phenoxymethyl]-oxazol-2-yl}-5-trifluoromethoxy-1H-indole], the IC50 lay within 500 to 1000 nM.

`Clc1ccc2cc(-c3nc(COc4cccc(CCCn5ccnn5)c4)co3)[nH]c2c1` [Example 16, 6-Chloro-2-{4-[3-(3-[1,2,3]triazol-1-yl-propyl)-phenoxymethyl]-oxazol-2-yl}-1H-indole] displayed an IC50 of 0.1 to 50 nM.

For `Clc1ccc2[nH]c(-c3nc(COc4ccc(CCCCn5ccnn5)cc4)cs3)cc2c1` [Example 17, 5-Chloro-2-{4-[4-(4-[1,2,3]triazol-1-yl-butyl)-phenoxymethyl]-thiazol-2-yl}-1H-indole], the IC50 fell in the range of 0.1 to 50 nM.

Consider `Clc1ccc2[nH]c(-c3nc(COc4ccc(COCCn5ccnn5)cc4)cs3)cc2c1` [Example 18, 5-Chloro-2-{4-[4-(2-[1,2,3]triazol-1-yl-ethoxymethyl)-phenoxymethyl]-thiazol-2-yl}-1H-indole], for which the IC50 is 50 to 500 nM.

As to `O=S(=O)(Cc1coc(-c2cc3cc(F)ccc3[nH]2)n1)c1ccc(CCCCn2ccnn2)cc1` [Example 21, 5-Fluoro-2-{4-[4-(4-[1,2,3]triazol-1-yl-butyl)-benzenesulfonylmethyl]-oxazol-2-yl}-1H-indole], the IC50 is 50 to 500 nM.

`FC(F)(F)Oc1ccc2[nH]c(-c3nc(CNc4ccc(CCCCn5ccnn5)cc4)co3)cc2c1` [Example 22, [4-(4-[1,2,3]Triazol-1-yl-butyl)-phenyl]-[2-(5-trifluoromethoxy-1H-indol-2-yl)-oxazol-4-ylmethyl]-amine] yielded an IC50 of 50 to 500 nM.

`Fc1ccc2cc(-c3nc(CNc4ccc(CCCCn5ccnn5)cc4)co3)[nH]c2c1` [Example 23, [2-(6-Fluoro-1H-indol-2-yl)-oxazol-4-ylmethyl]-[4-(4-[1,2,3]triazol-1-yl-butyl)-phenyl]-amine]: the IC50 lay within 0.1 to 50 nM.

`Fc1ccc2[nH]c(-c3nc(CNc4ccc(CCCCn5ccnn5)cc4)co3)cc2c1` [Example 24, [2-(5-Fluoro-1H-indol-2-yl)-oxazol-4-ylmethyl]-[4-(4-[1,2,3]triazol-1-yl-butyl)-phenyl]-amine] came in with an IC50 of 37 nM.

In turn, `Cc1cc(NCc2coc(-c3cc4cc(Cl)ccc4[nH]3)n2)ccc1CCCCn1ccnn1` [Example 29, [2-(5-Chloro-1H-indol-2-yl)-oxazol-4-ylmethyl]-[3-methyl-4-(4-[1,2,3]triazol-1-yl-butyl)-phenyl]-amine] registered an IC50 of 0.1 to 50 nM.

The compound `Fc1ccc2[nH]c(-c3nc(CNc4ccc(CCCCn5ccnn5)c(F)c4)co3)cc2c1` [Example 32, [2-(5-Fluoro-1H-indol-2-yl)-oxazol-4-ylmethyl]-[3-fluoro-4-(4-[1,2,3]triazol-1-yl-butyl)-phenyl]-amine] showed an IC50 of 0.1 to 50 nM.

Compound `Fc1cc(NCc2coc(-c3cc4cc(Cl)ccc4[nH]3)n2)ccc1CCCCn1ccnn1` [Example 33, [2-(5-Chloro-1H-indol-2-yl)-oxazol-4-ylmethyl]-[3-fluoro-4-(4-[1,2,3]triazol-1-yl-butyl)-phenyl]-amine] showed an IC50 of 0.1 to 50 nM.

In turn, `Fc1cc(CCCCn2ccnn2)ccc1NCc1coc(-c2cc3cc(Cl)ccc3[nH]2)n1` [Example 35, [2-(5-Chloro-1H-indol-2-yl)-oxazol-4-ylmethyl]-[2-fluoro-4-(4-[1,2,3]triazol-1-yl-butyl)-phenyl]-amine] showed an IC50 of 50 to 500 nM.

`Fc1ccc2[nH]c(-c3nc(CNc4ccc(CCCCn5ccnn5)nc4)co3)cc2c1` [Example 38, [2-(5-Fluoro-1H-indol-2-yl)-oxazol-4-ylmethyl]-[6-(4-[1,2,3]triazol-1-yl-butyl)-pyridin-3-yl]-amine] had an IC50 of 50 to 500 nM.

With `Cc1cc(OCc2coc(-c3cc4cc(F)ccc4[nH]3)n2)ccc1COCCn1ccnn1` [Example 40, 5-Fluoro-2-{4-[3-methyl-4-(2-[1,2,3]triazol-1-yl-ethoxymethyl)-phenoxymethyl]-oxazol-2-yl}-1H-indole], the IC50 fell in the range of 0.1 to 50 nM.
